Measurements reported in ChEMBL document CHEMBL1201862, “PubChem BioAssay data set” (2004).
Active and inactive are the calls of the source.

What was measured:
[1] = tested on: Cryptococcus neoformans; experiment: PubChem AID 686997; type: functional, organism-based
[2] = tested on: Cryptococcus neoformans; experiment: Cryptococcus growth inhibition by alamar blue – cell lysis, cherry-picks, replicate tests, mechanism study for C. neoformans antifungal project, dose response (AID 686999); type: functional, organism-based
[3] = HEK293 cell cytotoxicity, dose response, cytotoxicity control, cherry-picks, set 5 (AID 1053117); type: functional, cell-based
[4] = HepG2 cell cytotoxicity, dose response, cytotoxicity control, cherry-picks, set 5 (AID 1053118); type: functional, cell-based
[5] = inhibitors of fibronectin matrix deposition, dose response, AH1F cells, Alexa488-FN fluorescence, cherry-picks (AID 1035475); type: functional, cell-based
[6] = target: Delta-type opioid receptor (Homo sapiens, UniProt P41143); experiment: Late-stage results from the probe development effort to identify antagonists of OPRK1: fluorescence-based cell-based dose response OPRD1 counterscreen.; type: functional
[7] = target: Kappa-type opioid receptor (Homo sapiens, UniProt P41145); experiment: OPRK1 antagonists, late-stage follow-up, cell-based, fluorescence, dose response (AID 652032); type: functional
[8] = target: Mu-type opioid receptor (Homo sapiens, UniProt P35372); experiment: Late-stage results from the probe development effort to identify antagonists of OPRK1: luminescence-based cell-based dose response OPRM1 counterscreen.; type: functional
[9] = target: Eukaryotic translation initiation factor 4E (Mus musculus, UniProt P63073); experiment: eIF4E–eIF4G protein interaction inhibitors, dose response, biochemical, TR-FRET (AID 855); type: functional;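 note: potency for disrupting eIF4E binding to eIF4GI seen as loss of FRET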
[10] = tested on: HEK293; experiment: cells; type: functional, cell-based; details: Homo sapiens
[11] = target: Nucleotide-binding oligomerization domain-containing protein 1 (Homo sapiens, UniProt Q9Y239); experiment: NOD1 signaling inhibitors, SAR follow-up, revised (AID 2333); type: functional
[12] = tested on: HEK293; experiment: NOD2 signaling inhibitors in MDP-stimulated cells, cell-based, uHTS, luminescence (AID 2001); type: functional; details: Homo sapiens
[13] = target: Tumor necrosis factor (Homo sapiens, UniProt P01375); experiment: TNFa-triggered NF-kB activation inhibitors, SAR follow-up, cell-based, revised (AID 2337); type: functional
[14] = cytotoxicity in HEK-293T NF-kB-Luc cells, dose response, cytotoxicity control for B/T-cell NF-kB inhibitor project, cell-based, uHTS hits (AID 489019); type: functional;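 note: IC50 reflects cytotoxicity as loss of cell viability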
[15] = inhibitors of clade B AD8 Env fusion, dose response, cell-based, cherry-pick (AID 652062); type: functional;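 note: luciferase signal from cell-cell fusion driven by HIV-1 clade B AD8 Env; potency is for inhibitors of fusion seen as a drop in luminescence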
[16] = tested on: HEK293; experiment: NOD1 signaling inhibitors, primary screen, cell-based, luminescence, uHTS (AID 1578); type: functional; details: Homo sapiens
[17] = target: Galanin receptor type 3 (Homo sapiens, UniProt O60755); experiment: Fluorescence-based cell-based primary high throughput dose response assay to identify antagonists of the Galanin Receptor 3 (GalR3).; type: functional
[18] = cells; type: functional, cell-based; details: HEK-CNG
[19] = tested on: HEK293; experiment: cells; type: functional, cell-based; details: Homo sapiens; remark: listed apart in the source
[20] = tested on: HEK293; experiment: cells; details: Homo sapiens
[21] = tested on: Jurkat; experiment: antigen receptor-induced NF-kB inhibitors, dose response, Jurkat, luciferase reporter, luminescence, B- and T-cell (AID 489004); type: functional, cell-based; details: Homo sapiens;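 note: NF-kB luciferase reporter Jurkat cells stimulated with PMA plus ionomycin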
[22] = off-target signal loss in HeLa-CEM21 co-culture – HeLa F-luc CTL cells, cherry-picked, counter-screen for HIV-1 Env fusion inhibitor project, dose response (AID 652040); type: functional, cell-based;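 note: potency for signal decrease marking cytotoxic or nonspecific inhibition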
[23] = LGR2 antagonists, dose response, cell-based, HEK293, CRE-luciferase reporter, cherry pick, set 2 (AID 743343); type: functional;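 note: transfected cells were stimulated with diluted bursicon conditioned medium after compound addition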
[24] = inhibitors of HIV Env-driven cell fusion, dose response, cherry-pick (AID 652057); type: functional, cell-based
[25] = MC4R antagonists, dose response, counter-screen for LGR2 antagonist project, cell-based, plate reader, cherry pick (AID 743444); type: functional;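 note: transfected HEK 293 cells stimulated with alpha-MSH peptide; potency of inhibitors of the alpha-MSH evoked signal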
[26] = ZM109 Env clade C HIV-1 fusion inhibitors, dose response, HeLa effector, CEM target cells, luciferase, cherry-pick (AID 652058); type: functional, cell-based
[27] = CEM21 lymphoblast cell cytotoxicity, dose response, cytotoxicity control for viral fusion inhibitor project, CellTiter-Glo luminescence, cherry-picked (AID 652042); type: functional, cell-based;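 note: potency for signal decrease meaning cytotoxicity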
[28] = A549 cell cytotoxicity, dose response, cytotoxicity control, plate reader, cherry-pick, antagonist series (AID 743412); type: functional, cell-based
[29] = tested on: INS1; experiment: beta cell apoptosis inhibitors, cytokine rescue, dose response, luminescence, retest (AID 449756); type: functional, cell-based; details: Rattus norvegicus;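 note: cell death triggered by IL-1 beta plus TNF-alpha plus IFN-gamma mixture; protective hits raise ATP signal compared with cytokine alone wells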
[30] = HepG2 cell cytotoxicity, dose response, cytotoxicity control, plate reader, cherry-pick, antagonist series (AID 743416); type: functional, cell-based
[31] = HEK293 cell cytotoxicity, dose response, cytotoxicity control, plate reader, cherry-picked samples (AID 743446); type: functional, cell-based
[32] = control 3'UTR Renilla luciferase suppression, dose response, counter-screen for Shn3 inhibitor project, cell-based, Clone20-Shn3RL, cherry-picked (AID 624133); type: functional
[33] = HepG2 cell cytotoxicity, dose response, cytotoxicity control for Shn3 inhibitor project, CellTiter-Glo, cherry-picked (AID 624134); type: functional, cell-based
[34] = inhibitors of control Renilla luciferase reporter, dose response, counter-screen for Shn3 3'UTR targeting project, Clone20-Shn3RL cells, dual-Glo, cherry-pick, set 2 (AID 720724); type: functional, cell-based; details: Dual-Go Shn3RL
[35] = reduction of Shn3 3'UTR firefly luciferase signal, dose response, Schnurri-3 inhibitor project, cell-based, Clone20 osteoblasts, cherry-pick, set 2 (AID 720490); type: functional;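 note: actives lower the luminescence signal as inhibitors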
[36] = Shn3 3'UTR reporter inhibitors, dose response, cell-based, Clone20 osteoblasts, firefly luciferase, cherry-picked (AID 624132); type: functional;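 note: firefly luciferase luminescence from reporter carrying the Shn3 3'UTR in osteoblasts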
[37] = NIH:OVCAR-3 ovarian cancer cell cytotoxicity, dose response, PAX8 inhibitor project, plate reader, dry powder samples (AID 743044); type: functional, cell-based
[38] = cytotoxicity in OVCAR4 cells, dose response, cytotoxicity control for PAX8 inhibitor project, cell-based, plate reader, dry powder, SA11 (AID 743150); type: functional; details: OVCAR-4
[39] = cytotoxicity in COV434 cells, dose response, cytotoxicity control for PAX8 inhibitor project, cell-based, plate reader, dry powder, SA7 (AID 743145); type: functional
[40] = IOSE-T80 ovarian epithelial cell cytotoxicity, dose response, cytotoxicity control for PAX8 inhibitor project, plate reader, dry powder samples (AID 743045); type: functional, cell-based
[41] = IGROV1 ovarian cancer cell cytotoxicity, dose response, PAX8 inhibitor project, plate reader, dry powder samples (AID 743043); type: functional, cell-based; details: IGROV-1
[42] = cytotoxicity in COV362 ovarian cancer cells, dose response, cytotoxicity control for PAX8 inhibitor project, cell-based, plate reader, dry powder, SA12 (AID 743144); type: functional
[43] = cytotoxicity in OV-90 ovarian cancer cells, dose response, PAX8 inhibitor project, cell-based, plate reader, dry powder, SA8 (AID 743149); type: functional
[44] = cytotoxicity dependent on PAX8, dose response, cell-based, plate reader, dry powder (AID 743049); type: functional
[45] = PAX2 cell-based inhibition, dose response, selectivity assay for PAX8 inhibitor project, plate reader, dry powder samples (AID 743048); type: functional;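 note: HEK293 cells carrying a WT1 promoter luciferase reporter driven by expressed Pax2; potency is for inhibition of Pax2 driven reporter signal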
[46] = PAX5 activity inhibitors, dose response, selectivity assay for PAX8 inhibitor project, cell-based, plate reader, dry powder samples (AID 743047); type: functional;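 note: HEK293 cells carrying a Pax5 driven CD19 promoter luciferase reporter; potency of inhibitors that lower reporter luminescence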
[47] = tested on: HEK293; experiment: inhibitors of LMP1-driven NF-kB reporter, dose response, cell-based, HEK293, luciferase, cherry-pick (AID 588343); type: functional; details: Homo sapiens
[48] = HEK293T cytotoxicity, dose response, cytotoxicity control for miR-122 modulator project, cell-based, activator set, cherry-pick (AID 720690); type: functional;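 note: HEK293T human cells scored for general mammalian cytotoxicity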
[49] = HEK293T cytotoxicity, dose response, cytotoxicity control for miR-122 modulator project, cell-based, inhibitor set, cherry-pick, set 2 (AID 720697); type: functional
[50] = inhibitors of intracellular T. cruzi replication, confirmation, NIH3T3 host cells, beta-gal luminescence (AID 2044); type: functional, cell-based;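 note: intracellular parasites grown in NIH/3T3 mouse fibroblasts as host cells; luminescent beta-galactosidase reporter signal from transgenic T. cruzi replicating inside host cells; inhibitors lower the luminescence signal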
[51] = cytotoxicity toward NIH3T3 fibroblasts, dose response, counter-screen, cell-based, ATP luminescence, mouse fibroblasts (AID 2010); type: functional;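 note: cells exposed to compound for about 90 hours before reading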
[52] = target: Endoplasmic reticulum aminopeptidase 1 (Homo sapiens, UniProt Q9NZ08); experiment: ERAP1 aminopeptidase inhibitors, dose response, biochemical, cherry-pick, set 2, plate reader (AID 743314)
Sequence of Endoplasmic reticulum aminopeptidase 1 (Q9NZ08 whole entry): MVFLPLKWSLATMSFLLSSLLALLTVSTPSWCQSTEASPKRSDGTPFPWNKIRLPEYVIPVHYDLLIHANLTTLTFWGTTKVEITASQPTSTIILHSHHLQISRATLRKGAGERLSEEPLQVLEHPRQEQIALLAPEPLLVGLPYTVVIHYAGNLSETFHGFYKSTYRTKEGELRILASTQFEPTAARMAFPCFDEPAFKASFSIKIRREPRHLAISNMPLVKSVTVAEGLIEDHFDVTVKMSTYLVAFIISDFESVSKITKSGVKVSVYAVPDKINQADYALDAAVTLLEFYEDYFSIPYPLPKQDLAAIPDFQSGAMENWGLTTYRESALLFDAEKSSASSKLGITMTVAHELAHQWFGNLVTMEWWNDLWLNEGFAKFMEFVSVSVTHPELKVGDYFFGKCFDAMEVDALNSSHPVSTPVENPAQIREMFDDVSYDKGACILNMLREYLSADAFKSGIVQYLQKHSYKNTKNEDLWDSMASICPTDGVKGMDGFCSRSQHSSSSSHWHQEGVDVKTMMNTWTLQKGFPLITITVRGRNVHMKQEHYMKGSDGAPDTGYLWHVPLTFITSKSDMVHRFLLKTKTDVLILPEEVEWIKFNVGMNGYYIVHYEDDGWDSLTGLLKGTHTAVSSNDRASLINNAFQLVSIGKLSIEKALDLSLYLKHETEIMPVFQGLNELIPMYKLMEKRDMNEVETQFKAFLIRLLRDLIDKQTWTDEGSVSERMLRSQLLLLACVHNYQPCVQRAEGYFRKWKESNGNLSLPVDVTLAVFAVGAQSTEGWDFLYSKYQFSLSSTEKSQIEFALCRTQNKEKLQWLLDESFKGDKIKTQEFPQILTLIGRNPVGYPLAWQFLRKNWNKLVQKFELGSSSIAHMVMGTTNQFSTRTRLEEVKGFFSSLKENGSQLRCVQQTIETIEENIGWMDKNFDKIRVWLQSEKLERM

Sequence of Kappa-type opioid receptor (P41145 whole entry): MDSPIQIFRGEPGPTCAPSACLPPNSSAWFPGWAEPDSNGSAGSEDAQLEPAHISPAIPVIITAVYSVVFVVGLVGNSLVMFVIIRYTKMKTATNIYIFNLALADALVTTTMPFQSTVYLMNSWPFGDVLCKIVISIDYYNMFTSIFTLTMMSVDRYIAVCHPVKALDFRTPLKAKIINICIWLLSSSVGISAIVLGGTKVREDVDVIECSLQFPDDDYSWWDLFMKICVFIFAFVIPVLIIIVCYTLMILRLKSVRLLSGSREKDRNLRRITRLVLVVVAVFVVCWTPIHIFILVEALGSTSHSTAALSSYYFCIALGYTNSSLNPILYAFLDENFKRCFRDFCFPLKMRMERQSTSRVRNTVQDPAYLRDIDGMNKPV
Sequence of Mu-type opioid receptor (P35372 whole entry): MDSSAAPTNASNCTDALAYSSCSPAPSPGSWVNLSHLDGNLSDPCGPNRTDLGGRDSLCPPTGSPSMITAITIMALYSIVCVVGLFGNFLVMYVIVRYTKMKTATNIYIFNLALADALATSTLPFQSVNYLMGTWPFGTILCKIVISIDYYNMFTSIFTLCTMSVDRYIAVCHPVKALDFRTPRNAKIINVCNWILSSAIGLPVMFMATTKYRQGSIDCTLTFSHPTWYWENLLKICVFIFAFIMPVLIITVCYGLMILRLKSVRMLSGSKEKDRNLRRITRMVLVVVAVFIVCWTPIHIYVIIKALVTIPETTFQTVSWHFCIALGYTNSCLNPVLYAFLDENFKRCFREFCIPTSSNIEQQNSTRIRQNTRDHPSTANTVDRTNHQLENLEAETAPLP
Sequence of Eukaryotic translation initiation factor 4E (P63073 whole entry): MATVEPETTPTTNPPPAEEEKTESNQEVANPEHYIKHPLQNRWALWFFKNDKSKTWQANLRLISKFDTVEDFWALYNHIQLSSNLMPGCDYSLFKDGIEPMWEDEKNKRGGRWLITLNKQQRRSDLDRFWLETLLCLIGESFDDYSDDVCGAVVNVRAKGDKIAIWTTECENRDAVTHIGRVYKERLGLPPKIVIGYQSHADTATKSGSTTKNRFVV
Sequence of Delta-type opioid receptor (P41143 whole entry): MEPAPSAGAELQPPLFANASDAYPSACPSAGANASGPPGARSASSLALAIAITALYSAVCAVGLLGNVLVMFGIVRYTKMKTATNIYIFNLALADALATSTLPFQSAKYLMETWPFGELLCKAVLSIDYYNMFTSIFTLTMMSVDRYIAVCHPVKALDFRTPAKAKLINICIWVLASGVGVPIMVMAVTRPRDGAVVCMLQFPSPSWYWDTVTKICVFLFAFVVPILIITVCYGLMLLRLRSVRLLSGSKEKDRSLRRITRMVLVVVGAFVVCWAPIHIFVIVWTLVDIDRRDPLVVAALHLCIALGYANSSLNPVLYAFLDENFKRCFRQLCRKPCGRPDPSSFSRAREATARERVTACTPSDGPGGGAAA
Sequence of Tumor necrosis factor (P01375 whole entry): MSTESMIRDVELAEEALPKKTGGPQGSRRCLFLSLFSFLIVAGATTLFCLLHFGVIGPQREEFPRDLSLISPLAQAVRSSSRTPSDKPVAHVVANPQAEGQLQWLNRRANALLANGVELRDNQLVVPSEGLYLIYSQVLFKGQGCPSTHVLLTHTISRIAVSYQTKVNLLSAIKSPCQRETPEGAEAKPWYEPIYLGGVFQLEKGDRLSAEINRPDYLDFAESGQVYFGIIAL
Sequence of Nucleotide-binding oligomerization domain-containing protein 1 (Q9Y239 whole entry, the tested form may be a part): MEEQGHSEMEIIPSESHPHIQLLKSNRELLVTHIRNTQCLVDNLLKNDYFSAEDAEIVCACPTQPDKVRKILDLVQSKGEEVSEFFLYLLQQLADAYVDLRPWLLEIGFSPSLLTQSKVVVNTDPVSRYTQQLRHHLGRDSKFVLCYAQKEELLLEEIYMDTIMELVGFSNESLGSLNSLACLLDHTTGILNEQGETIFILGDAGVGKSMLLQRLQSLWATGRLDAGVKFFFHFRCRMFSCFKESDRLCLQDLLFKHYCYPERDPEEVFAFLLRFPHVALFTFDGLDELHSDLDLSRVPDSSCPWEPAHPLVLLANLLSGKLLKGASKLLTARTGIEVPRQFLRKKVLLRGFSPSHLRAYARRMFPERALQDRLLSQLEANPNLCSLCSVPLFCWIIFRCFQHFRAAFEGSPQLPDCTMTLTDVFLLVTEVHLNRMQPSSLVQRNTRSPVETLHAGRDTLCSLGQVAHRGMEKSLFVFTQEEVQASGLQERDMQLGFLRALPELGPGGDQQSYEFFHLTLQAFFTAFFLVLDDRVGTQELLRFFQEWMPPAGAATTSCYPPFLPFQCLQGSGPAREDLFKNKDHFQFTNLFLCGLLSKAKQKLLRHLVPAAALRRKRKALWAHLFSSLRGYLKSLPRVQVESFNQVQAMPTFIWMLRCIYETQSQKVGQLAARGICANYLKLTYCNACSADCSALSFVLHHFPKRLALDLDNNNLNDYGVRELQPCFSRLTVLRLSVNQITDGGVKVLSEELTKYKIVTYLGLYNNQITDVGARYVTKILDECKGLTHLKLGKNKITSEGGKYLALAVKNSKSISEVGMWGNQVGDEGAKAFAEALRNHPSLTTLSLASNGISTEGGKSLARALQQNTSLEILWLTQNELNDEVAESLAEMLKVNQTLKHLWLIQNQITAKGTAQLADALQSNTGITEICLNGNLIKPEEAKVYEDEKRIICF
Sequence of Galanin receptor type 3 (O60755 whole entry): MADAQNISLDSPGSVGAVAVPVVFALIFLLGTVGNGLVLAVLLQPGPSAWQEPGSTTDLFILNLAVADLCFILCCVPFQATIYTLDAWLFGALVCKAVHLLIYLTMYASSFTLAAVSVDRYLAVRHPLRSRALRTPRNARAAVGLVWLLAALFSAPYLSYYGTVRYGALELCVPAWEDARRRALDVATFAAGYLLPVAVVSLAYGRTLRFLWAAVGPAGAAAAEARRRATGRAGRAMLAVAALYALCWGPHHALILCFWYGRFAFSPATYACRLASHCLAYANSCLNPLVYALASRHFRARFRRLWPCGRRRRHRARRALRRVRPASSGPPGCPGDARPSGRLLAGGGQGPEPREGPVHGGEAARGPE

COC(=O)C1=C(C)N(Cc2ccc(Cl)cc2)C(=S)NC1c1ccc(F)cc1 (centres undefined)
AC50 [1]: 35.4 µM (active) | AC50 ([1]; Cryptococcus neoformans): 23.6 µM (active) | AC50 [2]: 43 µM (active)

CO[C@H]1CN(C)C(=O)c2ccc(NC(=O)Nc3ccc(Cl)c(Cl)c3)cc2OC[C@H](C)NC[C@@H]1C
AC50 [3]: 18.4 µM (active) | AC50 [4]: 11.2 µM (active) | AC50 [5]: 53.6 µM (active)

COC(=O)c1cc(Br)cnc1N1CCC(N[C@@H]2CCCC[C@@H]2O)CC1
IC50 [6]: > 50 µM (inactive) | IC50 [7]: 0.579 µM (active) | IC50 [8]: 19 µM (inactive)

CCCCCn1c(=O)[nH]c2cc(C(=O)N3CCN(Cc4ccc5c(c4)OCO5)CC3)ccc2c1=O
IC50 [9]: > 64 µM (inactive) | IC50 [10]: 8.7 µM (active) | IC50 [11]: 0.771 µM (active) | IC50 [12]: 1.27 µM (active) | IC50 [13]: 1.18 µM (active) | IC50 [14]: > 80 µM (inactive) | AC50 [15]: < 0.26 µM (active) | EC50 [16]: 0.36 µM (active) | IC50 [17]: 0.148 µM (active) | EC50 [18]: > 29.9 µM (inactive) | IC50 [19]: 0.97 µM (active) | IC50 [20]: > 20 µM (inactive) | IC50 [21]: > 80 µM (inactive) | AC50 [22]: > 70 µM (inactive)

Cc1nc(N/N=C/c2ccccn2)sc1C
AC50 [23]: 0.573 µM (active) | AC50 [24]: 3.74 µM (active) | AC50 [25]: 0.949 µM (active) | AC50 [15]: 6.45 µM (active) | AC50 [26]: 18.8 µM (active) | AC50 [27]: 6.02 µM (active) | AC50 [28]: 5.22 µM (active) | AC50 [29]: 3.83 µM (active) | AC50 [30]: 2.7 µM (active) | AC50 [31]: 7.53 µM (active) | AC50 [22]: 13.5 µM (active)

CC1CCCC(NC(=O)c2cccc(S(=O)(=O)N3CCN(c4ccccc4)CC3)c2)C1C (centres undefined)
AC50 [32]: > 70 µM (inactive) | AC50 [33]: > 70 µM (inactive) | AC50 [34]: 25.2 µM (active) | AC50 [35]: 4.29 µM (active) | AC50 [36]: 3.14 µM (active)

O=C(CCCN1C(=O)/C(=C\c2ccccc2OC(F)F)SC1=S)Nc1cccnc1
AC50 [37]: 21.6 µM (active) | AC50 [38]: 14.8 µM (active) | AC50 [39]: 34.5 µM (active) | AC50 [40]: 46.9 µM (active) | AC50 [41]: 9.15 µM (active) | AC50 [42]: 18.1 µM (active) | AC50 [43]: 46.2 µM (active) | AC50 [44]: 7.44 µM (active) | AC50 [45]: > 100 µM (inactive) | AC50 [46]: 81 µM (active)

COc1ccc(C(NC(C)=O)c2cc(Cl)c3cccnc3c2O)cc1 (centres undefined)
AC50 [32]: 1.66 µM (active) | AC50 [47]: 4.38 µM (active) | AC50 [48]: 12.1 µM (active) | AC50 [33]: 3.17 µM (active) | AC50 [49]: 2.06 µM (active) | AC50 [29]: 1.95 µM (active) | EC50 [50]: 1.47 µM (active) | EC50 [51]: 4.23 µM (active) | AC50 [36]: 1.61 µM (active)

Cc1c(C)c2ccc(O)c(CN3CCN(C)CC3)c2oc1=O
AC50 [52]: 10.8 µM (active)
